This passage reports GI50 and TGI results from PubChem BioAssay (NCI).

The structures appear in SMILES notation.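 Five concentrations, 48 hours, 96-well plates. Here, GI50 denotes the concentration required for 50% inhibition of growth. TGI marks complete inhibition of growth.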 Where a SMILES comes first, the peptide text is derived from it. [ ]: non-standard residue; d: D form. The star is where a group is joined. AllylGly = C=CC[CH](N)C(=O)O; Boc = CC(C)(C)OC(=O)*; OtBu = CC(C)(C)O*

Among the test systems are SK-OV-3 ovarian; TK-10 renal; OVCAR-3 ovarian; SK-MEL-2 melanoma; NCI-H226 lung; UACC-257 melanoma; ACHN renal; U251 CNS.
Holding throughout (assay): NCI anticancer screen, dose series, 48 h

For the compound `COCC1CCCN1c1ccc(/C=C(/C#N)C(N)=S)cc1` (stereo not given), the GI50 in the assay with SK-OV-3 ovarian is above 100 µM; in the assay with TK-10 renal, above 100 µM; with OVCAR-3 ovarian, above 100 µM; with SK-MEL-2 melanoma, above 100 µM; with NCI-H226 lung, 34.6 µM; with UACC-257 melanoma it was above 100 µM. Also, the GI50 in the assay on ACHN renal and with U251 CNS was above 100 µM each time. In addition, the TGI in the assay on SK-OV-3 ovarian, in the assay with TK-10 renal, in the assay with OVCAR-3 ovarian, in the assay on SK-MEL-2 melanoma, in the assay with NCI-H226 lung and in the assay on UACC-257 melanoma was above 100 µM throughout. The TGI in the assay on ACHN renal and in the assay on U251 CNS was above 100 µM in each case.
Regarding `CN(NC(=O)CCCl)C1=NCCN1`, the TGI in the assay with SK-OV-3 ovarian, in the assay with TK-10 renal, in the assay with OVCAR-3 ovarian, in the assay on SK-MEL-2 melanoma, in the assay on NCI-H226 lung and in the assay on UACC-257 melanoma was above 100 µM each time. Besides, the TGI in the assay on ACHN renal and in the assay on U251 CNS was above 100 µM throughout.
For `N#Cc1c(-c2ccc([N+](=O)[O-])cc2)cc(-c2ccc(Nc3ccnc4cc(C(F)(F)F)ccc34)cc2)nc1N`, the TGI is above 71.6 µM in the assay with SK-OV-3 ovarian; above 69.8 µM in the assay on TK-10 renal; 29.3 µM in the assay on OVCAR-3 ovarian; above 59.7 µM in the assay with SK-MEL-2 melanoma; above 70.1 µM in the assay with NCI-H226 lung; above 85.2 µM with UACC-257 melanoma. Also, the TGI in the assay with ACHN renal is above 68.8 µM; with U251 CNS, 21.9 µM.
In the case of `C=CCC(NC(=O)C(CC(=O)OC(C)(C)C)NC(=O)OC(C)(C)C)C(=O)OC` (stereo not given) (Boc-Asp(OtBu)-[AllylGly]-OMe; configuration not given here), the TGI with SK-OV-3 ovarian was above 100 µM; with TK-10 renal, above 100 µM; with OVCAR-3 ovarian it was 61.4 µM; in the assay on SK-MEL-2 melanoma, above 100 µM; with NCI-H226 lung, above 100 µM; with UACC-257 melanoma, 58.1 µM. Besides, the TGI in the assay with ACHN renal is above 100 µM; with U251 CNS, above 63 µM.
On to `CCNC1(c2cccc(C)c2)OC(C)(C)c2cccc3cccc1c23` (stereo not given), for which the TGI with SK-OV-3 ovarian amounted to 37.9 µM; in the assay on TK-10 renal it was 38.3 µM; in the assay with OVCAR-3 ovarian it was 33.2 µM; with SK-MEL-2 melanoma, 30.3 µM; in the assay with NCI-H226 lung it was 39 µM; with UACC-257 melanoma, 37.9 µM. For the same compound, the TGI was determined as 32.4 µM in the assay with ACHN renal and 31.4 µM in the assay with U251 CNS.
For `CN1CN(c2ccccc2)C2(CCN(CCCSc3ccccc3NC(=O)/C=C/c3ccccc3)CC2)C1=O`, the TGI is above 42.3 µM with SK-OV-3 ovarian; 34.4 µM with TK-10 renal; 13.3 µM in the assay with OVCAR-3 ovarian; 6.12 µM with SK-MEL-2 melanoma; 5.56 µM in the assay with NCI-H226 lung; 3.34 µM in the assay with UACC-257 melanoma. Besides, the figures for the TGI in the assay on ACHN renal and in the assay with U251 CNS were 9.81 µM and 22.5 µM, respectively.
As for `O=c1[nH]c(Nc2cccc(C(F)(F)F)c2)nc2nc[nH]c12`, the TGI in the assay with SK-OV-3 ovarian, in the assay with TK-10 renal, in the assay with OVCAR-3 ovarian, with SK-MEL-2 melanoma, with NCI-H226 lung and in the assay on UACC-257 melanoma was above 100 µM in each case. Moreover, the TGI in the assay with ACHN renal and in the assay with U251 CNS was above 100 µM in each case.
Consider `CC(C)NC(=O)CN1CCN(C2=CC(=O)c3c(O)ccc(O)c3C2=O)CC1`, for which the TGI was 77.1 µM in the assay with SK-OV-3 ovarian; 31.5 µM in the assay with TK-10 renal; 6.56 µM in the assay with OVCAR-3 ovarian; 34.3 µM with SK-MEL-2 melanoma; above 68.8 µM with NCI-H226 lung; 19.8 µM in the assay with UACC-257 melanoma. Further, the TGI in the assay on ACHN renal worked out at 54.1 µM; in the assay with U251 CNS, 35.9 µM.
`C[C@]12CC[C@@H]3c4cc(OCC(F)(F)F)c(O)cc4C(=O)C[C@H]3[C@@H]1CC[C@@H]2O`: the TGI with SK-OV-3 ovarian is 47.5 µM; in the assay on TK-10 renal, above 100 µM; in the assay with OVCAR-3 ovarian, 7.59 µM; in the assay with SK-MEL-2 melanoma it was above 26.1 µM; in the assay on NCI-H226 lung, above 100 µM; with UACC-257 melanoma, above 100 µM. Also, the results for the TGI in the assay on ACHN renal and in the assay with U251 CNS were above 100 µM and above 38.8 µM, respectively.
As for `C[C@H](Nc1c(O)c2c(c(O)c1Cl)C(=O)C=CC2=O)C(=O)Nc1ccc([N+](=O)[O-])cc1`, the TGI was above 10 µM in the assay with SK-OV-3 ovarian; 3.39 µM in the assay with TK-10 renal; 2.75 µM in the assay with OVCAR-3 ovarian; 9.1 µM in the assay on SK-MEL-2 melanoma; 6.84 µM in the assay with NCI-H226 lung; 3.41 µM with UACC-257 melanoma. Also, the TGI turned out to be 9.31 µM in the assay with ACHN renal and 6.02 µM in the assay on U251 CNS.
As to `COCC1OC(OC2C3=C(C(C)C)CCC3(C)/C=C3\C(CCC3(O)COC)C(C)C2O)C(O)C2OC3OC12OC3(C)C1CO1` (stereo not given), the TGI in the assay with SK-OV-3 ovarian was above 100 µM; with TK-10 renal, above 100 µM; with OVCAR-3 ovarian, above 100 µM; in the assay with SK-MEL-2 melanoma, above 100 µM; in the assay on NCI-H226 lung, 43.1 µM; in the assay on UACC-257 melanoma it was above 100 µM. The figures for the TGI in the assay on ACHN renal and in the assay on U251 CNS were above 100 µM and 98.8 µM, respectively.
For the compound `O=C(NNC(=S)Nc1ccccc1)c1ccccc1Nc1ccccc1C(=O)NNC(=S)Nc1ccccc1`, the TGI in the assay on SK-OV-3 ovarian worked out at 89.8 µM; in the assay with TK-10 renal, 68.7 µM; in the assay on OVCAR-3 ovarian, 38.4 µM; in the assay with SK-MEL-2 melanoma, 47.1 µM; in the assay on NCI-H226 lung, 77.9 µM; in the assay with UACC-257 melanoma, 56.7 µM. Besides, the TGI in the assay with ACHN renal was above 100 µM; in the assay on U251 CNS, 50.7 µM.
Regarding `OC12COc3ccccc3C1Oc1ccccc1C2` (stereo not given), the TGI in the assay on SK-OV-3 ovarian, with TK-10 renal, in the assay with OVCAR-3 ovarian, with SK-MEL-2 melanoma, in the assay with NCI-H226 lung and in the assay on UACC-257 melanoma was above 100 µM in each case. In addition, the TGI with ACHN renal and in the assay on U251 CNS was above 100 µM each time.
Consider `CC1(C)C(=O)C(C)(C)C12SSC1(S2)C(C)(C)C(=O)C1(C)C`, for which the TGI in the assay with SK-OV-3 ovarian, in the assay with TK-10 renal, with OVCAR-3 ovarian, in the assay on SK-MEL-2 melanoma, in the assay with NCI-H226 lung and in the assay with UACC-257 melanoma was above 100 µM in each case. Further, the TGI in the assay with ACHN renal and in the assay with U251 CNS was above 100 µM each time.
